Data taken from ChEMBL document CHEMBL1147280, “Isolation Of A Novel Cytotoxic Polyacetylene From A Traditional Anthelmintic Medicinal Plant, Minquartia guianensis” (J Nat Prod, 1989).
Values after ≈ are worked out from the molar mass of the structure shown.

Columns and labels:
P388 = test: Cytotoxicity against mouse P388 cells; type: functional; settings: read-out: ED50 (the source's name)
[1] = Toxicity in brine shrimp larvae; type: organism-based; settings: artemia, in vivo

SMILES: CC(O)C#CC#CC#CC#CCCCCCCCC(=O)O (single isomer, unassigned; (-))
- EC50 (P388): 0.53 µg/mL (≈ 1.86 µM)
- LC50 [1]: 5.06 µg/mL (≈ 17.8 µM)
